# Test results as given in ChEMBL document CHEMBL1129916, “Topoisomerase II inhibitors. Synthetic hybridization of 4-quinolones and anthracyclines” (Bioorg Med Chem Lett, 1997).
# Active and inactive are the calls of the source. The rule behind the calls is not given here.
# Assays:
# [1] = In vitro activity in agar dilution-streak assay against Gram-negative bacteria at 100 ug/ml; IA means Inactive; format: functional
# Bacteria = test: In vitro activity in agar dilution-streak assay against Gram-positive bacteria at 100 ug/ml; IA means Inactive; format: functional, organism-based
# Nucleic Acid = test: Inhibitory against Escherichia coli derived DNA gyrase II as ability to induce strand breakage; IA means Inactive; format: nucleic-acid assay
# A549 = test: In vitro inhibitory activity against A549 tumor cell culture; IA= Inactive; format: functional, cell-based, Homo sapiens
# B16-F10 = test: In vitro inhibitory activity against B16F10 tumor cells; IA= Inactive; format: functional, cell-based, Mus musculus
# P388 = test: In vitro inhibitory activity against P-388 tumor cells; IA= Inactive; format: functional, cell-based, Mus musculus
# HT-29 = test: In vitro inhibitory activity against HT-29 tumor cells; IA= inactive; format: functional, cell-based, Homo sapiens
Activity (Nucleic Acid),IC50 (A549),IC50 (B16-F10),IC50 (P388),IC50 (HT-29),SMILES,Activity [1],Activity (Bacteria)
,,,,,O=C(O)c1cn(C2CC2)c2cc(N3CCNCC3)c(F)cc2c1=O,inactive,inactive
inactive,Not Active,Not Active,Not Active,Not Active,O=C1c2ccccc2C(=O)c2c(O)c3c(c(O)c21)C(=O)C(C(=O)O)CN3C1CC1 (stereo not drawn),inactive,inactive
inactive,Not Active,Not Active,Not Active,Not Active,CCN1CC(C(=O)O)C(=O)c2c(O)c3c(c(O)c21)C(=O)c1ccccc1C3=O (stereo not drawn),inactive,inactive
inactive,Not Active,Not Active,Not Active,Not Active,O=C1c2ccccc2C(=O)c2c(O)c3c(c(O)c21)C(=O)C(C(=O)O)CN3c1ccc(F)cc1 (stereo not drawn),inactive,inactive
